Measurements published in patent publication US20150030702A1, “NITRIC OXIDE-[…] DRESSINGS” (priority 2007, published 2015).
Where two headings read alike, the source gives them in different places.

Tests used:
[1] = cited from earlier work
[2] = under normal conditions; cited from earlier work
[3] = nitrite 30 mM, 10 mM hydrochloric acid, hydroquinone 30 mM (FIG. 1); followed by a further slow increase
Procedure: The pH was measured prior to addition of hydroquinone and then at time-points indicated following addition of hydroquinone.
The concentration of nitrosothiol concentration can be estimated from the absorbance reading using the molar absorption coefficient for nitrosothiols=approximately 10,000 M^−1 cm^−1.

O=NO [Nitrite, nitrite]
pKa ([1]; at 25° C.): about 3.4
pKa [1]: 3.4

[N]=O [NO, nitric oxide]
Maximum solubility in water [2]: approximately 1.7 mM

Oc1ccc(O)cc1 [hydroquinone, Hydroquinone]
pH after rapid increase in the presence of hydroquinone [3]: about 5.0

O=C(O)O [bicarbonic acid]
pKa [1]: 6.3
